# Source: patent US6656951B2, “8-aza-bicyclo[3.2.1]octan-3-ol derivatives of 2,3-dihydro-1,4-benzodioxan as 5-HT1A antagonists” (Wyeth, priority 2001, dated 2003)
# Structures can show the parent of a compound that is named as a salt. Where two headings read alike, the source gives them in different places.
# Assays:
# human 5-HT1A receptor = target: T1, human 5-HT1A receptor (Homo sapiens, UniProt P08908); assay: HC 5-HT1A affinity (radioligand binding, h5-HT1A.CHO cell membranes)
# T1 construct: expressed in transfected cells; membranes
# T1 sequence (P08908 1-422): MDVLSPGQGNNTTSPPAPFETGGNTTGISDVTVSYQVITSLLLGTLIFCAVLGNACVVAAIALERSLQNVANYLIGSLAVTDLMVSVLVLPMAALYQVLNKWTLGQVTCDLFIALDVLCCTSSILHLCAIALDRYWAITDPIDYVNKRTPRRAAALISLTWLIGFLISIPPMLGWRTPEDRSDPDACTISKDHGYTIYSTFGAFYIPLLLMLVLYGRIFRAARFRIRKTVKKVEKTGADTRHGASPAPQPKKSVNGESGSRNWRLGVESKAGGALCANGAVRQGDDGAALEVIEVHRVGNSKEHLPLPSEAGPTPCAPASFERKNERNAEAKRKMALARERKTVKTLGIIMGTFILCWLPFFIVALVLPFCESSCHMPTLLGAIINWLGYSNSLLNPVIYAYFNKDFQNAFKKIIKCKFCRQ
# Excerpt: The 5-HT1A affinity of compounds of this invention was established in accordance with standard pharmaceutically accepted test procedures with representative compounds as follows:
# Cloning of Human 5-HT1A Receptor:
# The PCR cloning of the human 5-HT1A receptor subtype from a human genomic library has been described previously (Chanda et al., 1993). A stable Chinese hamster ovary cell line expressing the human 5-HT1A receptor subtype (h5-HT1A.CHO cells) was employed throughout this study. Cells were maintained in DMEM supplemented with 10% fetal calf serum, non-essential amino acids and penicillin/streptomycin.
# Cells were grown to 95-100% confluency as a monolayer before membranes were harvested for binding studies. Cells were gently scraped from the culture plates, transferred to centrifuge tubes, and washed twice by centrifugation (2000 rpm for 10 min., 4° C.) in buffer (50 mM Tris; pH 7.5). The resulting pellets were aliquoted and placed at −80° C. On the day of assay, the cells were thawed on ice, and resuspended in buffer. Studies were conducted using [^3H]8-OH-DPAT as the radioligand. The binding assay was performed in 96 well microtiter plates in a final total volume of 250 μL of buffer. Competition experiments were performed by using 7 concentrations of unlabelled drug and a final ligand concentration of 1.5 nM. Non-specific binding was determined in the presence of 10 μM 5-HT. Saturation analysis was conducted by using [^3H]8-OH-DPAT at concentrations ranging from 0.3-30 nM. Following a 30 minute incubation at room temperature, the reaction was terminated by the addition of ice cold buffer and rapid filtration using a M-96 Brandel Cell Harvester (Gaithersburg, Md.) through a GF/B filter presoaked for 30 minutes in 0.5% polyethyleneimine. […]
# [1] = target: T2, cloned human 5-HT1A receptors (Homo sapiens, UniProt P08908); assay: [35S]-GTPγS binding to assess agonism/antagonism at the 5-HT1A receptor; format: biochemical
# T2 construct: expressed in transfected cells; membranes
# T2 sequence (P08908 1-422): T1 sequence (P08908 1-422)
# Method: Assessment of Agonism/Antagonism at the 5-HT1A Receptor Using [^35S]-GTPγS Binding to Cloned Human 5-HT1A Receptors:
# The [^35S]-GTPγS binding assay was similar to that used by Lazareno and Birdsall (Br. J. Pharmacol. 1993, 109, 1120). Briefly, 5-HT1A cloned receptor membrane fragments (as used for 5-HT1A receptor binding assays) were stored at −70° C. until needed. When needed, membranes were rapidly thawed, centrifuged at 40,000×g for 10 minutes and resuspended at 4° C. for 10 minutes in assay buffer (25 mM HEPES, 3 mM MgCl2, 100 mM NaCl, 1 mM EDTA, 10 uM GDP, […], pH 8.0). These membranes were then incubated for 30 min at 30° C. with [^35S]GTPgS (1 nM) in the presence of vehicle, test compound (one to eight concentrations), or excess 8-OH-DPAT to define maximum agonist response. All reactions are terminated by the addition of ice cold Tris buffer followed by rapid filtration using a Tom Tech® filtration device to separate bound from free [ ^35S]GTPgS. Agonists produce an increase in the amount of [^35S]GTPgS bound whereas antagonists produce no increase in binding. Bound radioactivity was counted and analyzed as above.
# [2] = two-platform spatial discrimination task; cited from earlier work
# rats = details: delayed nonmatching to sample radial arm maze task; cited from earlier work
# [3] = post-training administration, autoshaping learning task; cited from earlier work
# [4] = n=2, membranes of CHO cells expressing human 5-HT1A, read-out: HC 5-HT1A affinity Ki
# [5] = n=1, cloned human 5-HT1A receptor membranes
# [6] = n=1, cloned human 5-HT1A receptor membranes, read-out: [35S]GTPgS IC50
smiles,measurement,setting,value
"CCOc1cccc2c1O[C@@H](CN1C3CCC1CC(O)(c1ccc4ccccc4c1)C3)CO2 (stereo partly drawn) (as salt: oxalate) [Example 1, (S)-8-(8-Ethoxy-2,3-dihydro-benzo[1,4]dioxin-2-ylmethyl)-3-naphthalen-2-yl-8-aza-bicyclo[3.2.1]octan-3-ol]",melting point,,126 to 129 °C
"CCOc1cccc2c1O[C@@H](CN1C3CCC1CC(O)(c1ccc4ccccc4c1)C3)CO2 (stereo partly drawn) [Example 1, (S)-8-(8-Ethoxy-2,3-dihydro-benzo[1,4]dioxin-2-ylmethyl)-3-naphthalen-2-yl-8-aza-bicyclo[3.2.1]octan-3-ol]",Ki,human 5-HT1A receptor; [4],5.9 nM
"CCOc1cccc2c1O[C@@H](CN1C3CCC1CC(O)(c1ccccc1)C3)CO2 (stereo partly drawn) [Example 2, (S)-8-(8-Ethoxy-2,3-dihydro-benzo[1,4]dioxin-2-ylmethyl)-3-phenyl-8-aza-bicyclo[3.2.1]octan-3-ol]",Ki,human 5-HT1A receptor; [4],3.1 nM
same,melting point,,152 to 155 °C
"CCOc1cccc2c1O[C@@H](CN1C3CCC1CC(O)(c1csc4ccccc14)C3)CO2 (stereo partly drawn) [Example 3, (S)-3-Benzo[b]thiophen-3-yl-8-(8-ethoxy-2,3-dihydro-benzo[1,4]dioxin-2-ylmethyl)-8-aza-bicyclo[3.2.1]octan-3-ol]",Ki,human 5-HT1A receptor; [4],16.7 nM
same,melting point,,111 to 114 °C
"CCOc1cccc2c1O[C@@H](CN1C3CCC1CC(O)(c1ccccn1)C3)CO2 (stereo partly drawn) [Example 4, 8-{[(2S)-8-Ethoxy-2,3-dihydro-benzo[1,4]dioxin-2-yl]methyl)-3-pyridin-2-yl-8-aza-bicyclo[3.2.1]octan-3-ol]",Ki,human 5-HT1A receptor; [4],61.6 nM
same,melting point,,95 to 99 °C
"CCOc1cccc2c1O[C@@H](CN1C3CCC1CC(O)(c1cccc(C(F)(F)F)c1)C3)CO2 (stereo partly drawn) [Example 5, 8-{[(2S)-8-Ethoxy-2,3-dihydro-benzo[1,4]dioxin-2-yl]methyl)-3-(3-trifluoromethylphenyl)-8-aza-bicyclo[3.2.1]octan-3-ol]",Ki,human 5-HT1A receptor; [4],2.9 nM
same,melting point,,86 to 90 °C
"COc1ccccc1C1(O)CC2CCC(C1)N2C[C@H]1COc2cccc(OC)c2O1 (stereo partly drawn) [Example 6, 8-{[(2S)-8-Methoxy-2,3-dihydro-1,4-benzodioxin-2-yl]methyl}-3-(2-methoxyphenyl)-8-azabicyclo[3.2.1]octan-3-ol]",Ki,human 5-HT1A receptor; [4],39 nM
same,melting point,,176 to 178 °C
"COc1cccc2c1O[C@@H](CN1C3CCC1CC(O)(c1cccc(C(F)(F)F)c1)C3)CO2 (stereo partly drawn) [Example 7, 8-{[(2S)-8-Methoxy-2,3-dihydro-1,4-benzodioxin-2-yl]methyl}-3-[3-(trifluoromethyl)phenyl]-8-azabicyclo[3.2.1]octan-3-ol]",Ki,human 5-HT1A receptor; [4],0.33 nM
same,melting point,,104 to 107 °C
"COc1cccc2c1O[C@@H](CN1C3CCC1CC(O)(c1ccccn1)C3)CO2 (stereo partly drawn) [Example 8, 8-{[(2S)-8-Methoxy-2,3-dihydro-1,4-benzodioxin-2-yl]methyl}-3-(2-pyridinyl)-8-azabicyclo[3.2.1]octan-3-ol]",Ki,human 5-HT1A receptor; [4],46 nM
same,[35S]GTPgS Imax,[1]; [5],100%
same,IC50,[1]; [6],1480 nM
same,melting point,,107 to 110 °C (dec.)
"COc1cccc2c1O[C@@H](CN1C3CCC1CC(O)(c1csc4ccccc14)C3)CO2 (stereo partly drawn) [Example 9, 3-(1-Benzothien-3-yl)-8-{[(2S)-8-methoxy-2,3-dihydro-1,4-benzodioxin-2-yl]methyl}-8-azabicyclo[3.2.1]octan-3-ol]",Ki,human 5-HT1A receptor; [4],1.6 nM
same,[35S]GTPgS Imax,[1]; [5],100%
same,IC50,[1]; [6],36 nM
same,melting point,,162 to 164 °C
"COc1cccc2c1O[C@@H](CN1C3CCC1CC(O)(c1ccccc1)C3)CO2 (stereo partly drawn) [Example 10, 8-{[(2S)-8-Methoxy-2,3-dihydro-1,4-benzodioxin-2-yl]methyl}-3-phenyl-8-azabicyclo[3.2.1]octan-3-ol]",Ki,human 5-HT1A receptor,1.53 nM
same,IC50,[1],25 nM
same,[35S]GTPgS Imax,[1]; [5],100%
same,melting point,,113 to 115 °C
COc1cccc2c1O[C@@H](CN1C3CCC1CC(O)(c1ccc4ccccc4c1)C3)CO2 (stereo partly drawn) [Example 11],Ki,human 5-HT1A receptor,0.81 nM
same,IC50,[1],9.9 nM
same,[35S]GTPgS Imax,[1]; [5],100%
same,melting point,,129 to 132 °C
COc1ccccc1N1CCN(CCN(C(=O)C2CCCCC2)c2ccccn2)CC1 [WAY-100635],effect on impairment of spatial learning caused by intrahippocampal injection of CPP,[2],prevented the impairment of spatial learning
same,effect on cognitive impairment induced by MK801,rats,significantly reduced the cognitive impairment
same,effect on learning deficit induced by scopolamine,[3],reversed the learning deficit
